Data from US9358262B2, “Use of antioxidant-enriched fermented blueberry extracts in the treatment of diabetes” (priority 2003, dated 2016).

Columns and labels:
[1] = tested on: RAW 264.7 gamma NO(−) macrophages; test: Cell viability of activated macrophages (MTT or resazurin assay); type: cell-based, mouse
Method: Cell culture. […] All cultures were incubated at 37° C. in a humidified atmosphere with 5% CO2. Cell number was assessed by trypan blue dye exclusion on a Neubauer hemacytometer. Cells were grown to 90% confluence in sterile cell culture flasks and gently detached using a scraper (Fisher Scientific). For phenolic compound treatment tests, cells were cultured in triplicate in Costar flat-bottom cell culture plates (Corning Inc.). Cells were plated at a density of 6×10^5 cells/well in 24-well cell culture plates and grown for 1 h to allow them to attach to the plate. Compounds to be tested were initially dissolved in 10 μl of DMSO, and then RPMI was added to make solutions in a series of concentrations with a dilution factor of 2. […] Cells were supplemented with the test compounds for 1 h before stimulation with 10 ng/ml lipopolysaccharide (LPS) and 10-50 units/ml interferon gamma (IFN-γ). The activated cells were incubated for 24 h and then supernatants were collected to determine nitrite concentration and/or stored at −80° C. for further use. Control cells were grown under identical conditions but were not exposed to the test compounds or LPS/IFN-γ.
Cell Viability. Cell viability was determined by the MTT assay and/or the resazurin-based in vitro toxicology assay kit, TOX-8 (Sigma). The viability of cells activated only by LPS/IFN-γ was arbitrarily set as 100, and all other viabilities, that is, cells receiving different treatments but within the same 24-well plate, were normalized to that of the LPS/IFN-γ activated control cells.
Inhibition of Nitric Oxide Production. […] Cell viability was assayed to exclude the possibility that the inhibitory effects of phenolic compounds were due to their cytotoxicity. The MTT assay was used for the colorless phenolic compound-treated macrophages, whereas the resazurin assay was used for cranberry and blueberry juice-treated macrophages.

[2] = reference phenolic compounds, Fukumoto and Mazza (2000); cited from earlier work
[3] = NO experiment (Table 7), 31 μM, LPS/IFN-γ control = 100
[4] = NO experiment (Table 7), 63 μM, LPS/IFN-γ control = 100
[5] = NO experiment (Table 7), 125 μM, LPS/IFN-γ control = 100
[6] = TNF-α experiment (Table 8), 100 μM
[7] = TNF-α experiment (Table 8), 200 μM
[8] = TNF-α experiment (Table 8), 300 μM
[9] = TNF-α experiment (Table 8), 400 μM
[10] = TNF-α experiment (Table 8), 500 μM

Structure (SMILES)	Cell viability [1, 3]	Cell viability [1, 4]	Cell viability [1, 5]	Cell viability [1, 6]	Cell viability [1, 7]	Cell viability [1, 8]	Cell viability [1, 9]	Cell viability [1, 10]	Cell viability ([1]; NO experiment (Table 7), 16 μM, LPS/IFN-γ control = 100)	Cell viability ([1]; NO experiment (Table 7), 250 μM, LPS/IFN-γ control = 100)	Cell viability ([1]; NO experiment (Table 7), 500 μM, LPS/IFN-γ control = 100)	Cell viability ([1]; TNF-α experiment (Table 8), 50 μM)	Antiradical activity [2]	Antiradical power [2]
O=C(/C=C/c1ccc(O)c(O)c1)O[C@@H]1C[C@](O)(C(=O)O)C[C@@H](O)[C@H]1O [Chlorogenic acid]	105.6 (8.7) %	106 (5.7) %	98.5 (7.1) %	100.6 (1.9) %	98.9 (2.3) %	97.1 (1.4) %	97.3 (1) %	99 (1.9) %	–	–	–	–	–	–
O=C(O)c1cc(O)c(O)c(O)c1 [Gallic acid]	111 (6.4) %	98.9 (0.9) %	108.5 (0.6) %	98.3 (2.3) %	96.7 (0.8) %	97.6 (2.5) %	96.1 (2.3) %	95.6 (1.6) %	110 (2.2) %	100.6 (3.7) %	109.7 (5.4) %	97.7 (0.4) %	−6.21 (0.60)	12.50
